{"source": "patent US4228167A", "about": "“Diuretic and vasodilating tricyclic quinazolines” (Sumitomo Chemical Company, Limited, priority 1977, dated 1980)", "key": {"[1]": {"system": "rat aortic strips", "test": "Vasodilating activity: relaxation of isolated rat aortic strips contracted with potassium chloride", "conditions": "read-out: Median effective concentration (ED50)", "procedure": "Vasodilating activity was examined by use of the method described by N. Tada et al., J. Pharmacol. Exp. Ther., 191, 139 (1974). The rat aortic strips were isolated and contracted using 30 mM of potassium chloride. Dose dependent relaxation in the aortic strips was observed by adding the test compounds. At the end of each experiment, papaverine in a concentration of 3×10^-5 g/ml was added and the relaxation induced was taken as 100%. Median effective concentration (ED50) was obtained from dose response curves."}, "[2]": {"test": "Diuretic activity (urinary excretion) in rats", "type": "in vivo", "conditions": "standard dose of 10 mg/kg; for Urinary excretion K^30: potassium, control 0.53; for Urinary excretion Na^+ /K^ +: ratio, control 2.9; for Urinary excretion Na^30: sodium, control 1.5; for Urinary excretion: urine volume, control 9.5", "procedure": "Diuretic activity was evaluated according to the method described by W. L. Lipschits et al., J. Pharmacol. Exp. Ther., 79, 97 (1943). The results in rats are shown in Table I, where the data for a standard dose of 10 mg/kg is listed for the purpose of comparison."}, "[3]": {"conditions": "rat aortic strips contracted with 30 mM potassium chloride, relaxation by papaverine 3×10^-5 g/ml taken as 100%"}}, "note": "Where two headings read alike, the source gives them in different places.", "data": [{"compound": "Clc1ccc2c(c1)N(CC1CC1)C1=NCCCN1C2c1ccccc1", "note": "(stereo not shown) [9-Cl, H, H, [drawing 4], H, CH2 CH2 CH2, 9-Chloro-11-cyclopropylmethyl-6-phenyl-3,4,6,11-tetrahydro-2H-pyrimido[2,1-b]quinazoline]", "values": [{"measurement": "EC50", "setting": "[1]; [3]", "result": 0.29, "unit": "mg/L"}, {"measurement": "Urinary excretion K^30", "setting": "[2]", "result": 0.78, "unit": "mequiv/kg"}, {"measurement": "Urinary excretion Na^+ /K^ +", "setting": "[2]", "result": 6.1}, {"measurement": "Urinary excretion Na^30", "setting": "[2]", "result": 4.7, "unit": "mequiv/kg"}, {"measurement": "Urinary excretion", "setting": "[2]", "result": 34.3, "unit": "mL/kg"}]}, {"compound": "CN1C2=NCCN2C(O)(c2ccc(Cl)cc2)c2ccccc21", "note": "(stereo not shown) [H, H, p-Cl, Me, OH, CH2 CH2, 5-(p-chlorophenyl)-5-hydroxy-10-methyl-2,3,5,10-tetrahydroimidazo[2,1-b]quinazoline]", "values": [{"measurement": "Urinary excretion K^30", "setting": "[2]", "result": 0.84, "unit": "mequiv/kg"}, {"measurement": "Urinary excretion Na^+ /K^ +", "setting": "[2]", "result": 5.2}, {"measurement": "Urinary excretion Na^30", "setting": "[2]", "result": 4.4, "unit": "mequiv/kg"}, {"measurement": "Urinary excretion", "setting": "[2]", "result": 32.6, "unit": "mL/kg"}]}, {"compound": "CCCCN1C2=NCCCN2C(c2ccccc2)c2cc(Cl)ccc21", "note": "(stereo not shown) [8-Cl, H, H, n-Bu, H, CH2 CH2 CH2, 8-Chloro-11-(n-butyl)-6-phenyl-3,4,6,11-tetrahydro-2H-pyrimido[2,1-b]quinazoline]", "values": [{"measurement": "EC50", "setting": "[1]; [3]", "result": 0.27, "unit": "mg/L"}]}, {"compound": "CCCCN1C2=NCCN2C(c2ccccc2)c2cc(Cl)ccc21", "note": "(stereo not shown) [7-Cl, H, H, n-Bu, H, CH2 CH2, 7-chloro-10-(n-butyl)-5-phenyl-2,3,5,10-tetrahydroimidazo[2,1-b]quinazoline]", "values": [{"measurement": "Urinary excretion K^30", "setting": "[2]", "result": 0.86, "unit": "mequiv/kg"}, {"measurement": "Urinary excretion Na^+ /K^ +", "setting": "[2]", "result": 5.3}, {"measurement": "Urinary excretion Na^30", "setting": "[2]", "result": 4.5, "unit": "mequiv/kg"}, {"measurement": "Urinary excretion", "setting": "[2]", "result": 31.1, "unit": "mL/kg"}]}, {"compound": "COc1ccc(Cc2nccc3cc(OC)c(OC)cc23)cc1OC", "note": "[Papaverine, reference compound]", "values": [{"measurement": "EC50", "setting": "[1]; Rattus norvegicus", "result": 4.6, "unit": "mg/L"}]}, {"compound": "COc1ccc2c(c1)C(c1ccccc1)N1CCN=C1N2CC1CC1", "note": "(stereo not shown) [7-MeO, H, H, [drawing 6], H, CH2 CH2, 10-Cyclopropylmethyl-7-methoxy-5-phenyl-2,3,5,10-tetrahydroimidazo[2,1-b]quinazoline]", "values": [{"measurement": "EC50", "setting": "[1]; [3]", "result": 1, "unit": "mg/L"}]}, {"compound": "Clc1ccc2c(c1)N(CC1CC1)C1=NCCN1C2c1ccccc1", "note": "(stereo not shown) [8-Cl, H, H, [drawing 3], H, CH2 CH2, 8-Chloro-10-cyclopropylmethyl-5-phenyl-2,3,5,10-tetrahydroimidazo[2,1-b]quinazoline]", "values": [{"measurement": "EC50", "setting": "[1]; [3]", "result": 0.24, "unit": "mg/L"}, {"measurement": "Urinary excretion K^30", "setting": "[2]", "result": 0.92, "unit": "mequiv/kg"}, {"measurement": "Urinary excretion Na^+ /K^ +", "setting": "[2]", "result": 4.0}, {"measurement": "Urinary excretion Na^30", "setting": "[2]", "result": 3.7, "unit": "mequiv/kg"}, {"measurement": "Urinary excretion", "setting": "[2]", "result": 26.8, "unit": "mL/kg"}]}, {"compound": "CN1C2=NCCCN2C(c2ccccc2)c2cc(Cl)ccc21", "note": "(stereo not shown) [8-Cl, H, H, Me, H, CH2 CH2 CH2, 8-chloro-11-methyl-6-phenyl-3,4,6,11-tetrahydro-2H-pyrimido[2,1-b]quinazoline]", "values": [{"measurement": "Urinary excretion K^30", "setting": "[2]", "result": 0.97, "unit": "mequiv/kg"}, {"measurement": "Urinary excretion Na^+ /K^ +", "setting": "[2]", "result": 5.6}, {"measurement": "Urinary excretion Na^30", "setting": "[2]", "result": 5.6, "unit": "mequiv/kg"}, {"measurement": "Urinary excretion", "setting": "[2]", "result": 38.3, "unit": "mL/kg"}]}]}
